# In PMC11562385 (RSC Chemical Biology, 2024):
# Entries after “also recorded” stand apart in the source; their conditions may differ. Peptide text beside a SMILES is read from it.
# Columns and labels:
# [1] = tested on: h-PBMCs; test: Ex vivo cytokine secretion assay, healthy PBMCs; type: cell-based, human; settings: h-PBMCs reactivated with anti-CD2/28, 6 h incubation, n = 3
# Protocol: Then, an ex vivo immune cell culture system using h-PBMCs and exhausted PBMCs from a melanoma patient (e-PBMCs) was used to determine the efficacy of selected ADAPTin peptides on T-effector cells (Fig. 6).[91,92] T-cell exhaustion typically leads to a reduction in cytokine release, cytotoxic activity, as well as slower T-cell proliferation. […] Cytokines concentrations measured at 72 h post-treatment were in most cases over the detection limit range further indicating the effectiveness of our compounds over time.
# Non-covalent ADAPTin2c/2p were used as negative control. (A) Levels of inflammatory cytokines measured by flow-cytometry (FACS) after 6 h incubation with electrophilic ADAPTins. Error bars indicate the mean ± SD, (n = 3). (B) Rescue of exhausted PBMCs from a melanoma patient. Levels of inflammatory cytokines and granule-associated proteins released (6 h) measured by FACS (healthy and untreated exhausted PBMCs: h-/e-PBMCs used as positive and negative controls respectively). Error bars indicate the avg ± SD, (n = 2).
# Ex Vivo Cytokine Secretion Assay.
# Normal PBMCs (from healthy donor) and exhausted PBMCs isolated from the blood sample of a melanoma patient were activated for 48 h before using anti-CD2/28 monoclonal antibodies with IL-2 (2 ng/mL) as mentioned above. […] Samples were transferred to a 96-well plate to read on a flow cytometer. […]
# [2] = target: T1, PD1:PDL1 interaction (Homo sapiens, UniProt Q15116); test: Time-course competitive inhibition of PD1:PDL1 under saturating PDL1 (1:12); type: binding; settings: inhibitor preincubated, 3 μM; PD1:PDL1 1:12; two hours; n = 4
# T1 construct: purchased BPS Bioscience 72005
# Protocol: Time-course experiments were repeated by preincubating the non-covalent inhibitor 2c in one case, or the covalent ADAPTins2ca and 2cb at the same concentration.
# [3] = target: PD1:PDL1 interaction; settings: read-out: apparent Ki, PD1:PDL1 interaction; cited from earlier work
# Excerpt: While downsizing a full antibody drug into a single CDR-H3 “hot loop”, one should anticipate a significant loss in binding affinity and specificity. […] The PD1 ...
# [4] = Variable-temperature CD melting curves (CD-melts at 228±2 nm and 202±2 nm), individual and global two-state fits; type: physicochemical
# Procedure, shortened: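 Far-UV CD melts (0 to 95 °C) at 15-120 µM peptide in 15 mM phosphate buffer, concentration set by Trp/Tyr absorbance at 280 nm; CD-exciton intensity taken as %-folding probe. Melting curves fitted individually and globally to a two-state model.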
# [5] = target: T2, cell surface PD1 on CD3+/CD8+ cells of h-PBMCs (Homo sapiens, UniProt Q15116); test: In cellulo PD1 blockade on h-PBMCs by flow cytometry; type: cell-based; settings: h-PBMC cultures, 30 h, n = 3
# T2 construct: endogenous in cells; host or cells: healthy human PBMCs (CD45+, CD3+/CD8+ gated)
# Excerpt: Then, an ex vivo immune cell culture system using h-PBMCs and exhausted PBMCs from a melanoma patient (e-PBMCs) was used to determine the efficacy of selected ADAPTin peptides on T-effector cells (Fig. 6).[91,92] T-cell exhaustion typically leads to a reduction in cytokine release, cytotoxic activity, as well as slower T-cell proliferation.
# [6] = tested on: N-deglycosylated PD1; test: SDS-PAGE analysis of covalent conjugation to N-deglycosylated PD1; type: biochemical; settings: N-deglycosylated PD1, 12 h, 37 °C, pH 6.5, peptide/protein 4:1 to 16:1
# [7] = xlsx sheet of the peptide, individual fit of CD-melt
# T1 sequence (Q15116 25-167 limits assumed): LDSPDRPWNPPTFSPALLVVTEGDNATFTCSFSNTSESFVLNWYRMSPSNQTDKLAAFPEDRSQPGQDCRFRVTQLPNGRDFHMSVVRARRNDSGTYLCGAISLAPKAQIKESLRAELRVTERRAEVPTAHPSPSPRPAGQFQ
# T2 sequence (Q15116 25-288): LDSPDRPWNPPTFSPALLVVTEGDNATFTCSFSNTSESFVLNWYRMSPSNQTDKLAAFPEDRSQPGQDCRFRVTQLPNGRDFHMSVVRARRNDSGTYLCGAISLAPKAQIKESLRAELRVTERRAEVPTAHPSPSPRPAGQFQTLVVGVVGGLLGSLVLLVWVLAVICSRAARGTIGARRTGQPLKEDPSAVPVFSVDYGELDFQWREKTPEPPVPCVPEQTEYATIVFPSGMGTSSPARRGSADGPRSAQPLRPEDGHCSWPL
structure (smiles),measurement,setting,value
CSCC[C@H](NC(=O)[C@H](CC(=O)O)NC(=O)[C@H](Cc1ccccc1)NC(=O)[C@H](CCCNC(=N)N)NC(=O)[C@H](Cc1ccc(O)cc1)NC(=O)[C@H](CC(=O)O)NC(=O)[C@H](CCCNC(=N)N)NC(=O)[C@H](CCCNC(=N)N)NC(=O)[C@H](C)NC(=O)[C@@H](NC(=O)[C@H](Cc1c[nH]c2ccccc12)NC(=O)[C@@H](N)CCCNC(=N)N)C(C)C)C(=O)NCC(=O)N[C@@H](Cc1ccccc1)C(=O)N[C@@H](CC(=O)O)C(=O)N[C@@H](Cc1ccc(O)cc1)C(=O)N[C@@H](Cc1c[nH]c2ccccc12)C(=O)N[C@H](C(=O)N[C@@H](Cc1c[nH]c2ccccc12)C(=O)N[C@@H](CCC(=O)O)C(=O)O)C(C)C [2c] (H-RWVARRDYRFDMGFDYWVWE-OH),"increase in TNF-α, IFN-γ and perforin levels",[1],no detectable activity
same,outcome of time-course competition with excess PDL1,[2],fully displaced by PDL1; also recorded: easily displaced
same,Ki,[3],41 nM
same,ΔGF0,"[4]; CD-melt at 228±2 nm, individual two-state Gibbs-Helmholtz fit (Origin 9.0), 0-95 °C, phosphate buffer 15 mM pH 6.5 ± MeOH",-1.26 ± 0.01 kcal/mol
same,Hairpin %-fold 291K,"[4]; Table S5, individual fit, 291 K",93 ± 1%
same,Hairpin %-fold 310K,"[4]; Table S5, individual fit, 310 K",77 ± 1%
same,-TΔSF0,[4]; as E16,12.4 ± 0.2 kcal/mol
same,ΔCpF0,[4]; as E16,-29 ± 7 cal.deg-1.mol-1
same,ΔHF0,[4]; as E16,-13.6 ± 0.2 kcal/mol
same,VT-CD %-fold,"[4]; folded fraction (χF) at 25 °C from CD-melts, (R) regular / (B) bulged fold, phosphate buffer 15 mM pH 6.5, up to 20% MeOH",93% (B)
same,Tm 228 nm Glob.,"[4]; global fit (shared maximum molar ellipticity), 228 nm",48.0 oC
same,Tm 202 nm Glob.,"[4]; global fit, 202 nm",67.5 oC
same,χF (291 K) 202 nm Glob.,"[4]; global fit, 202 nm, 291 K",97%
same,χF (291 K) 228 nm Glob.,"[4]; global fit, 228 nm, 291 K",63%
same,χF (291 K) 202 nm Indiv.,"[4]; individual fit, 202 nm, 291 K",73%
same,χF (291 K) 228 nm Indiv.,"[4]; individual fit, 228 nm, 291 K",56%
same,Tm 228 nm Indiv.,"[4]; individual fit, exciton band 228 nm",36.7 oC
same,Tm 202 nm Indiv.,"[4]; individual fit, β-bulge band 202 nm",62.2 oC
same,VT-CD Tm (°C),"[4]; melting temperature from CD-melts, phosphate buffer 15 mM pH 6.5, up to 20% MeOH",54 °C
same,"DHm, fitted value from OriginPro",[4]; [7],-14.4955 kcal/mol
same,"Tm, fitted value from OriginPro",[4]; [7],327.29 K
same,PD1 blockade on CD3+/CD8+ T-effector cells,[5],< 20%
same,covalent conjugation to PD1 on SDS-PAGE (in words),[6],No conjugation observed
